# Test results as given in ChEMBL document CHEMBL1151994, “Plant seeds as sources of potential industrial chemicals, pharmaceuticals, and pest control agents” (2009).
# How the values were obtained:
# Type in all cases: functional
# KB = assay: Cytotoxicity against human KB cells; details: for EC50: Homo sapiens, KB, read-out: ED50 (the source's name)
# P388 [1] = assay: In vivo antitumor activity against mouse P388 cells at 1 to 3.3 mg/kg relative to control; details: dose mg/kg 1-3.3
# [2] = In vivo antitumor activity against human B1 cells at 4 to 32 ug/kg relative to control
# PS [3] = assay: In vivo antitumor activity against […] PS cells at 1 to 31 ug/kg relative to control
# L1210 = assay: In vivo antitumor activity against mouse L1210 cells at 0.25 to 1 mg/kg relative to control; details: dose mg/kg 0.25-1
# P388 [4] = assay: In vivo antitumor activity against mouse P388 cells at 0.25 to 1 mg/kg relative to control; details: dose mg/kg 0.25-1
# PS [5] = assay: In vivo antitumor activity against […] PS cells at 8 to 23 ug/kg relative to control
# Ostrinia nubilalis = assay: Insecticidal activity against Ostrinia nubilalis; details: read-out: LD50 (the source's name)
compound,measurement,setting,value
C/C=C(\C)C(=O)N[C@@H](c1ccccc1)[C@@H](O)C(=O)O[C@H]1C[C@@]2(O)[C@@H](OC(=O)c3ccccc3)[C@@H]3[C@]4(OC(C)=O)CO[C@@H]4C[C@H](O)[C@@]3(C)C(=O)[C@H](OC(C)=O)C(=C1C)C2(C)C [CEPHALOMANNINE],EC50,KB,0.0038 µg/mL
same,T/C,P388 [1],158%
COc1cc2cc(c1Cl)N(C)C(=O)C[C@H](OC(=O)[C@H](C)N(C)C(=O)C(C)C)[C@]1(C)O[C@H]1[C@H](C)[C@@H]1C[C@@](O)(NC(=O)O1)[C@H](OC)/C=C/C=C(\C)C2OC (stereo partly specified) [TREWIASINE],T/C,[2],165%
same,ED50,KB,2 ×10⁻⁴ ug/ml
same,T/C,PS [3],126%
COC(=O)C[C@](O)(CCCC(C)(C)O)C(=O)O[C@@H]1C(OC)=C[C@]23CCCN2CCc2cc4c(cc2[C@H]13)OCO4 [OMACETAXINE MEPESUCCINATE],T/C,L1210,123%
same,T/C,P388 [4],244%
C=C1CO[C@](O)(C2OCOC(C3CC(=O)NC(=O)C3)[C@@H]2O)[C@H]1C (stereo partly specified) [SESBANIMIDE A],T/C,PS [5],140%
same,EC50,KB,0.0077 µg/mL
CO[C@@H]1[C@@H](O)[C@H](C)O[C@@H](O[C@H]2CC[C@@]3(C)[C@H](CC[C@@H]4[C@@H]3CC[C@]3(C)[C@@H](C5=CC(=O)OC5)CC[C@]43O)C2)[C@H]1OC(C)=O,LC50,Ostrinia nubilalis,192 µg/mL
CO[C@H]1[C@H](O)[C@H](O[C@H]2CC[C@@]3(C)[C@H](CC[C@@H]4[C@@H]3CC[C@]3(C)[C@@H](C5=CC(=O)OC5)CC[C@]43O)C2)O[C@@H](C)[C@@H]1O [NERIIFOLIN],LC50,Ostrinia nubilalis,30 µg/mL
